{"source": "patent US6136852A", "about": "“3,4-disubstituted phenylethanolaminotetralincarboxylic acid derivatives” (Kissei Pharmaceutical Co., Ltd., priority 1996, dated 2000)", "key": {"β2 -adrenergic receptor": {"molecular_target": "T1, β2 -adrenergic receptor (Rattus norvegicus, UniProt P10608)", "T1 construct": "The uteri of pregnant SD rats (pregnancy day 21) were isolated; from tissue; host or cells: longitudinal uterine muscle strips of pregnant SD rats (day 21)", "T1 sequence (P10608 whole entry)": "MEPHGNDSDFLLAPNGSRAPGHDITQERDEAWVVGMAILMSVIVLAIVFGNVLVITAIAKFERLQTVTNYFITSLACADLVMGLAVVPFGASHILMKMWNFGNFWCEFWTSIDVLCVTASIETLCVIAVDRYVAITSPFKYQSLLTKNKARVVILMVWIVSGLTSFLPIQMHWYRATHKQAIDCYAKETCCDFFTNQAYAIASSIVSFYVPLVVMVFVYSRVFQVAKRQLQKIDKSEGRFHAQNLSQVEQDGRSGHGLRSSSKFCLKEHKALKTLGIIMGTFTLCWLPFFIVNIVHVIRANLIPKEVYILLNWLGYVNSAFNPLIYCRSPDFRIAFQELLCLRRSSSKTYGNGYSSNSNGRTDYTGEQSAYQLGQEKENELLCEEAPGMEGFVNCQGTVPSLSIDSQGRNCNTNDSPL", "test": "Action of drugs on the spontaneous contractions of isolated pregnant rat myometrium (β2-adrenergic receptor stimulating activity)", "type": "cell-based", "conditions": "isolated pregnant SD rat uterus (pregnancy day 21), Magnus method; read-out: EC50 value (activity to relax 50% of the spontaneous contractions of rat myometrium)", "experimental": "Thus, the compounds of the present invention have markedly potent β2 -adrenergic receptor stimulating effect and therefore are remarkably useful as β2 -adrenergic receptor stimulating agents.\nAction of Drugs on the Spontaneous Contractions of Isolated Pregnant Rat Myometrium\nThe uteri of pregnant SD rats (pregnancy day 21) were isolated and longitudinal uterine muscle strips (about 15 mm in length and about 5 mm in width) free from the basal plate were prepared. The experiment was conducted according to the Magnus method. The sample with a tension of 1 g was exposed to Locke-Ringer solution maintained at 37° C. and gassed with a mixture of 95% of oxygen and 5% of carbon dioxide. The spontaneous contractions of the myometrium were induced isometrically via a pressure transducer and recorded on a rectigram. The drug efficacy was evaluated as 50% inhibitory drug concentration (i.e., EC50 value) by comparing the total degree of uterine contraction during 5 minutes before the addition of the drug with the total degree of uterine contraction during 5 minutes after the addition of the drug."}, "β1 -adrenergic receptor": {"test_system": "β1 -adrenergic receptor", "test": "Action of drugs on the atrial contractions of isolated rat atrium (β1-adrenergic receptor stimulating activity)", "type": "cell-based", "conditions": "isolated SD male rat atrium, Magnus method", "experimental": "Thus, the compounds of the present invention have markedly weak β1 -adrenergic receptor stimulating effect in comparison with the aforementioned β2 -adrenergic receptor stimulating effect.\nAction of Drugs on the Atrial Contractions of Isolated Atrium\nThe atria of SD male rats (350 to 400 g in body weight) were isolated and the experiment was conducted according to the Magnus method. The sample with a tension of 1 g was exposed to Krebs-Henseleit solution maintained at 37° C. and gassed with a mixture of 95% of oxygen and 5% of carbon dioxide. The atrial contraction was induced isometrically via a pressure transducer and recorded on a rectigram. After addition of the drug, its efficacy was evaluated as drug concentration that increased 20 beats per minute of heart rate (i.e., EC20 value)."}, "female ICR mice": {"test_system": "female ICR mice", "test": "Acute toxicity test", "type": "in vivo", "conditions": "intravenous, 30 mg/kg in saline", "experimental": "To 3 female ICR mice of 4 weeks age was administered intravenously ethyl 2-[(2S)-2-[[(2RS)-2-hydroxy-2-(4-hydroxy-3-hydroxymethylphenyl)ethyl]amino]-1,2,3,4-tetrahydronaphthalen-7-yloxy]acetate dissolved in saline at dose of 30 mg/kg."}}, "data": [{"smiles": "CCOC(=O)COc1ccc2c(c1)C[C@@H](NCC(O)c1ccc(O)c(CO)c1)CC2", "note": "(mixture of isomers) [Compound 4, Ethyl 2-[(2S)-2-[[(2RS)-2-hydroxy-2-(4-hydroxy-3-hydroxymethylphenyl)ethyl]amino]-1,2,3,4-tetrahydronaphthalen-7-yloxy]acetate]", "values": [{"measurement": "EC50", "setting": "β2 -adrenergic receptor", "result": 1.1, "unit": "nM"}, {"measurement": "EC20 value (concentration that increases 20 beats per minute of rat heart rate)", "setting": "β1 -adrenergic receptor", "result": "1.1×10^-6 mol concentration"}, {"measurement": "death of animals during 24 hours after the administration", "setting": "female ICR mice", "result": "No death of animals was observed"}]}]}
